# Test system: TNBS induced colitis
# Assay: Trinitrobenzenesulfonic acid (TNBS) Induced Colitis, rats
# Format: in vivo, Male Wistar rats
# Conditions: rat
# Source text: In Vivo Model: Trinitrobenzenesulfonic acid (TNBS) Induced Colitis The TNBS model of experimental colitis (Bobin-Dubigeon, C., Collin, X., Grimaud, N., Robert, J-M., Guillaume Le Baut, G., and Petit, J-Y. Effects of tumour necrosis factor-a synthesis inhibitors on rat trinitrobenzene sulphonic acid-induced chronic colitis. Eur. J. […] These symptomatic signs in the above—mentioned models are similar to what occur in human colitis. Male Wistar rats (200-250 g) are inoculated with 500 microliters of a solution of 10 to 20 mg of TNBS in 30% ethanol delivered intracolonically via catheter or ball-tipped gavage needle to the 8th cm from the anus. When Balb/c female mice (8-12 weeks of age) were used, the inoculation volume was 50 microliters containing 2-3 mg of TNBS in 30% ethanol delivered intracolonically via catheter or ball-tipped gavage needle to the 4th cm from the anus. During the ensuing 7 days, test animals were administered a preparation of an experimental compound. This material may be administered orally, subcutaenously or intraperitoneally, once or twice daily. At the end of this period, the animals were euthanized and their colons were collected for further analysis. Among the parameters analyzed were the length of the colon starting from the anus to the top of the cecum, the weight of the colon, the consistency of any stools found within the colon, the presence or absence of intraperitoneal adhesions on the serosal surfacr of the intestin, and the gross macroscopic appearance of the colon. […] In rats, the distal colon between the 5th and the 8th centimeter is dissected and placed in 10% neutral buffered formalin for later histological analysis. In mice, the 1st to the 4th cm was collected for histological analyses. For the following parameters—colon length, colon weight, stool consistency and appearance and macroscopic damage—a scoring system was used to describe the changes. The four scores for each animal were added to provide a Total Score. […] For the presence of blood in stool, one point was added to scores <3. […] Histological analyses of tissues consisted of staining paraffin-embedded tissue sections with hematoxylin-eosin dye. Epithelial damage scores were determined as the fraction of the tissue section showing damaged epithelium. […] Statistic analyses for these experiments performed with Graphpad Prism 4.0, using ANOVA, with Dunnets or Bonferroni's multiple comparisons test.
compound,measurement,setting,value
COc1cnn(C)c(=O)c1-c1ccc(C[C@H](NC(=O)c2c(Cl)cccc2Cl)C(=O)O)cc1 [Cpd 17],% Inhibition of Epithelial Damage Score,10 mg/kg sc bid,−5.822%
same,% Inhibition of Total Macroscopic Score,10 mg/kg sc bid,−1.638%
same,% Inhibition of Epithelial Damage Score,30 mg/kg sc bid,8.5%
same,% Inhibition of Total Macroscopic Score,30 mg/kg sc bid,−4.117%

# — patent publication US20050192279A1, “Pyridazinones as antagonists of alpha4 integrins” (priority 2004, published 2005)
